Experimental findings from patent US20240425491A1, “HETEROARYL COMPOUNDS USEFUL IN THE TREATMENT OF COGNITIVE DISORDERS” (University College Cardiff Consultants Limited, priority 2021, published 2024) are described below.

Where a name gives a salt, the structure may show the parent alone.

T1 sequence (P31644 32-462): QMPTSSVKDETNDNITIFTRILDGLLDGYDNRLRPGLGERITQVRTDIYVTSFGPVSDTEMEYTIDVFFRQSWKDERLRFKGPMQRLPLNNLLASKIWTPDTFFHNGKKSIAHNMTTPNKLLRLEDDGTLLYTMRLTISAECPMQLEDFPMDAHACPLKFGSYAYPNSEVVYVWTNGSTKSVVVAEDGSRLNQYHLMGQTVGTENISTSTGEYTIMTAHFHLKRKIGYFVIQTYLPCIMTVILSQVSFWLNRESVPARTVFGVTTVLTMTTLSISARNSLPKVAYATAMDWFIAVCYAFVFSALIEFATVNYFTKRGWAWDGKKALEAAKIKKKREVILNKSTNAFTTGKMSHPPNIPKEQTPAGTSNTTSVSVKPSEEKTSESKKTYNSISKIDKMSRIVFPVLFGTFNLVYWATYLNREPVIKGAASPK
T1 sequence (P28472 26-473 partner): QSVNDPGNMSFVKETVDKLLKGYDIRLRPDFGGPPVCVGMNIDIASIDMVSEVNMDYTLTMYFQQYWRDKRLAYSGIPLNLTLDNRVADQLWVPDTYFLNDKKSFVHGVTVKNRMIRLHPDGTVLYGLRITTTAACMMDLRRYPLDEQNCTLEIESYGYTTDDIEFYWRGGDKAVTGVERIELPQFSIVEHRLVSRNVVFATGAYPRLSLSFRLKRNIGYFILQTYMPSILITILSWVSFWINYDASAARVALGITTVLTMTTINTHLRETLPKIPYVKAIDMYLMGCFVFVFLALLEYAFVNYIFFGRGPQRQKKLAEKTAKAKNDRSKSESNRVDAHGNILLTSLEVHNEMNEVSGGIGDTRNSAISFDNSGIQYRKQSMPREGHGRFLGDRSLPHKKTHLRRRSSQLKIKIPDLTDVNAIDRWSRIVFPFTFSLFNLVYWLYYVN
T1 sequence (P18507 40-475): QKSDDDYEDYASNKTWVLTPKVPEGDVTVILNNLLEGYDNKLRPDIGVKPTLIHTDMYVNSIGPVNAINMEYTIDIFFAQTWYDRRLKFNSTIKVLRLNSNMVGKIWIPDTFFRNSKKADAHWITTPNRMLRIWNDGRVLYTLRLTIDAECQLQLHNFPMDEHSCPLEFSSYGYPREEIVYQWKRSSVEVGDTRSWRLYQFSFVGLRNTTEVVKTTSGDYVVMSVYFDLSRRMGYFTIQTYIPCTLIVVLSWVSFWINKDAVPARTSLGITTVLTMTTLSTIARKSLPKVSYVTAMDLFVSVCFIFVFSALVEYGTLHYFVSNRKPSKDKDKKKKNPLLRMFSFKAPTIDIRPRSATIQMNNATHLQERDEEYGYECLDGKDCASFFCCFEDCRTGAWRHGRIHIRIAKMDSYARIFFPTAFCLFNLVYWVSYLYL
T2 sequence (P31644 32-462): as the sequence (P31644 32-462) above
T2 sequence (P28472 26-473 partner): as the sequence (P28472 26-473 partner) above
T2 sequence (P18507 40-475): as the sequence (P18507 40-475) above

The first assay addresses T1, human α5β3γ2 GABAARs in mouse L(tk−) cells (Homo sapiens, UniProt P18507+P31644).
T1 construct: expressed in transfected cells; host or cells: mouse L(tk−) cells, dexamethasone-inducible vector pMSGneo
Description: In vitro electrophysiological recording assay (α5-GABAAR relative efficacy), QPatch. The format is cell-based. The note with it: Conc 1 μM; GABA EC10-20. The text has this:
(§1) Mouse L(tk^−) cells stably expressing human α1β3γ2, α2β3γ2, α3β3γ2, α5β3γ2 GABAARs generated by transfection of the individual subunits in the dexamethasone-inducible expression vector pMSGneo in mouse L(tk^−) cells (Hadingham et al., 1993, Mol. Pharmacol. 43:970-975 and 1993, Mol. Pharmacol. 44:1211-1218) were used for binding and functional assays. For certain compounds, HEK293 cells stable expressing the human α1β3γ2L, α2β3γ2L, α3β3γ2L and α5β3γ2L GABAA receptors were used to evaluate their functional effects in a SyncroPatch electrophysiology assay.
For QPatch electrophysiology testing, 1 μM dexamethasone was added to the culture medium of L(tk^−) cells 24 hours before the recordings were performed. Cells were typically used for electrophysiology experiments 72-96 hours after splitting.
The efficacy of modulators was evaluated using either the automated patch-clamp platform QPatch16 (Sophion, Copenhagen, Denmark) or the SyncroPatch 384i (Nanion Technologies, Germany). Cells were harvested from flasks by enzymatic dissociation and re-suspended in serum-free medium.
For QPatch recordings, all experiments were carried out at room temperature (20-22° C.) using a standard whole cell procedure and physiological solutions. Gigaseals were formed upon execution of a combined suction/voltage protocol with subsequent increased suction leading to the whole-cell configuration. The currents recorded were acquired at 1 KHz and filtered at 0.3 KHz using a Bessel filter. Whole-cell currents were measured at a holding potential of −65 mV.
For QPatch recordings, the extracellular solution contained of (in mM): 145 NaCl, 4 KCl, 1 MgCl2, 2CaCl2, 10 HEPES, 10 D-glucose (pH 7.4), and the intracellular solution consisted of (in mM): 96 KCl, 28 CsCl, 25 KOH, 4.3 CaCl2), 1.4 MgCl2, 10 EGTA, HEPES, 3 MgATP (pH 7.2). The osmolarities of the extracellular and intracellular solutions were 305 and 295 mOsm respectively.
The effects of modulators were evaluated in the presence of a submaximal GABA concentration, giving typically 10-20% activation (GABA EC10-20) of the response elicited by a saturating GABA concentration. For QPatch recordings, to check and ensure baseline current stability before compound addition, five consecutive applications of GABA EC10-20 alone (each application with a 2 s duration, separated by minimum 1 min wash off periods) were performed before compound addition. The test compound was applied using the pipetting system of the QPatch system 1 min at least prior to co-application with GABA EC10-20. For SyncroPatch recordings, GABA EC20 alone was applied three times (1 s long applications, with wash steps in-between) before compound addition. This was followed by a 1-2 min pre-incubation with the test compound and then re-application of GABA EC10-20 in the presence of the compound. Finally, following a further wash step, a saturating concentration of GABA was applied, allowing the accurate evaluation for each cell of the percentage baseline activation elicited by the submaximal GABA applied.
The compounds were first dissolved in DMSO as a 10 mM stock and then further diluted to the testing concentrations so that the final DMSO concentration in the extracellular recording solution was kept constant at 0.1% for the QPatch recordings, or 0.2% for the SyncroPatch recordings.
The % efficacy of modulators was determined from the GABA elicited currents recorded in the presence and absence of the test compound, using the formula:
[((compound peak current−leak)−(GABA peak current−leak))/(GABA peak current−leak)]*100,
where ‘leak’ is the leak baseline current at −65 mV, ‘compound peak current’ is the current elicited by co-application of compound and GABA, and ‘GABA peak current’ is the current elicited by GABA alone during the 5th GABA application. The results were presented as ‘relative efficacy’ for each compound generally at a concentration equal or higher than 100 times their determined Ki. […]
For orientation: In patch-clamp work, channel activity is measured electrically.
For `COc1nc(-c2cnc3n2CCNC3)ccc1NC(=O)c1c(-c2ccccc2)noc1C.Cl` [Example 138, N-(2-Methoxy-6-(5,6,7,8-tetrahydroimidazo[1,2-a]pyrazin-3-yl)pyridin-3-yl)-5-methyl-3-phenylisoxazole-4-carboxamide hydrochloride], the “α5-GABAAR Relative Efficacy (to DMCM), Qpatch” value was −0.62.

The assay is the same for the next values; noted with them: Conc 3 μM; GABA EC10-20.
For `CNCc1ccc(-c2ccc(NC(=O)c3c(-c4ccccc4)noc3C)c(OC)n2)cc1.Cl` [Example 183, N-[2-Methoxy-6-[4-(methylaminomethyl)phenyl]-3-pyridyl]-5-methyl-3-phenyl-isoxazole-4-carboxamide hydrochloride], the “α5-GABAAR Relative Efficacy (to DMCM), Qpatch” value was −0.68.

The same assay, now with this note: n=5; reference for normalising relative efficacy.
For the compound `CCc1c(C(=O)OC)ncc2[nH]c3cc(OC)c(OC)cc3c12` [DMCM, methyl-6,7-dimethoxy-4-ethyl-beta-carboline-3-carboxylate, reference compound], the “attenuation of GABA-induced currents (efficacy)” value is −57±4%.

A further assay addresses T2, human recombinant GABAAR containing α5β3γ2 subunits (benzodiazepine site) (Homo sapiens, UniProt P18507+P31644).
T2 construct: expressed in transfected cells; host or cells: mouse L(tk−) cells, dexamethasone-inducible vector pMSGneo
Description: In vitro radioligand binding assay (α5-GABAAR Ki).
Conditions: not given
Source text: as §1
L(tk^−) cells stably expressing human α1β3γ2, α2β3γ2, α3β3γ2, α5β3γ2 GABAARs were maintained in DMEM F12 medium supplemented with 10% Foetal Bovine Serum, 1% Penicillin/Streptomycin and 1 mg/mL Geneticin G418 in an incubator at 37° C. with a humidified atmosphere with 5% CO2.
The affinity (Ki) of compounds for the benzodiazepine site of human recombinant GABAARs was measured by their ability to inhibit the binding of the selective benzodiazepine antagonist [^3H] Ro15-1788 ([^3H] flumazenil).
L(tk^−) cells expressing human recombinant GABAAR containing α1β3γ2, α2β3γ2, α3β3γ2, α5β3γ2 subunits were harvested and membranes were prepared for each receptor combination in phosphate buffer (K2PO4 10 mM, pH 7.0) (Hadingham et al. (1992) Proc. Natl. Acad. Sci. USA; 89 (14): 6378-82). Protein concentration, receptor expression and the Kd of [^3H] Ro15-1788 were determined before Ki values of compounds were evaluated. For Kd evaluation, saturation binding curves were obtained by incubating membrane with various concentrations of [^3H] Ro15-1788 (82.5 Ci/mM), with nonspecific binding measured in the presence of 1 μM TP003.
For Ki evaluation, cell membranes were incubated with 4 nM [^3H] Ro15-1788 along with a range of concentrations of test compound. Nonspecific binding was determined using 1 μM TP003. All incubations were performed for 1 hour at 4° C. in assay buffer. The total assay volume was 0.5 mL, containing 100 μg membrane protein/well α1β3γ2, α2β3γ2, α3β3γ2 and 50 μg membrane protein/well for α53γ2. Incubations were terminated by filtration and washing with ice cold Tris-HCl buffer (50 mM, pH=7.4) over Whatman GF/B filters and the radioactivity of the filters was measured using liquid scintillation counting.
The % inhibition of [^3H] Ro15-1788 binding was plotted as a function of compound concentration and the IC50 calculated. From the IC50, the affinity (Ki) was calculated using the method of Cheng and Prusoff using the Kd values obtained for [^3H] Ro15-1788.
What is called Ki is a measure of affinity in units of concentration, obtained from inhibition or displacement. For the compound `COc1cc2c(-c3ccc(NC(=O)c4c(-c5ccccc5)noc4C)c(OC)n3)cn(C)c2cn1` [Example 109, N-(2-Methoxy-6-(5-methoxy-1-methyl-1H-pyrrolo[2,3-c]pyridin-3-yl)pyridin-3-yl)-5-methyl-3-phenylisoxazole-4-carboxamide], the Ki came out at 47.2 nM.

The same assay, now with this note: inhibition of [3H]Ro15-1788 binding, membranes of L(tk−) cells expressing human α5β3γ2; read-out: α5-GABAAR Ki.
With `COc1nc(-c2cnc3n2CCNC3)ccc1NC(=O)c1c(-c2ccccc2)noc1C.Cl` [Example 138, N-(2-Methoxy-6-(5,6,7,8-tetrahydroimidazo[1,2-a]pyrazin-3-yl)pyridin-3-yl)-5-methyl-3-phenylisoxazole-4-carboxamide hydrochloride], the Ki is 3.2 nM. Still for that read-out and setting: as for `CNCc1ccc(-c2ccc(NC(=O)c3c(-c4ccccc4)noc3C)c(OC)n2)cc1.Cl` [Example 183, N-[2-Methoxy-6-[4-(methylaminomethyl)phenyl]-3-pyridyl]-5-methyl-3-phenyl-isoxazole-4-carboxamide hydrochloride], the figure is 14.2 nM. On the same count and under the same terms, as for `COc1nc(-c2cncnc2)ccc1NC(=O)c1c(C)nnn1-c1ccccc1` [Example 157, N-(2-Methoxy-6-(pyrimidin-5-yl)pyridin-3-yl)-4-methyl-1-phenyl-1H-1,2,3-triazole-5-carboxamide], the figure is 45.8 nM; as for `COc1nc(-c2cnn3cccnc23)ccc1NC(=O)c1c(-c2ccccc2)noc1C` [Example 112, N-(2-Methoxy-6-(pyrazolo[1,5-a]pyrimidin-3-yl)pyridin-3-yl)-5-methyl-3-phenylisoxazole-4-carboxamide], 80.6 nM. Same read-out and setting: as for `COc1nc(-c2cnc(C(C)(C)O)nc2)ccc1NC(=O)c1c(-c2ccccc2)noc1C` [Example 201, N-[6-[2-(1-Hydroxy-1-methyl-ethyl)pyrimidin-5-yl]-2-methoxy-3-pyridyl]-5-methyl-3-phenyl-isoxazole-4-carboxamide], the figure is 35.4 nM. `COc1nc(-c2ccc(CCl)cc2)ccc1NC(=O)c1c(-c2ccccc2)noc1C` [Example 224, N-[6-[4-(chloromethyl)phenyl]-2-methoxy-3-pyridyl]-5-methyl-3-phenyl-isoxazole-4-carboxamide]: the inhibitory constant (Ki) was 220 nM. Same read-out and setting: the value for `CNc1nc(C)c(-c2ccc(NC(=O)c3c(-c4ccccc4)noc3C)c(OC)n2)c(C)n1` [Example 194, N-(6-(4,6-Dimethyl-2-(methylamino)pyrimidin-5-yl)-2-methoxypyridin-3-yl)-5-methyl-3-phenylisoxazole-4-carboxamide] was 38.7 nM; that for `COc1nc(-c2nnn(C)c2C)ccc1NC(=O)c1c(-c2ccccc2)noc1C` [Example 101, N-(6-(1,5-Dimethyl-1H-1,2,3-triazol-4-yl)-2-methoxypyridin-3-yl)-5-methyl-3-phenylisoxazole-4-carboxamide] was 45.1 nM.

For the compound `CNc1nc(-n2ccnc2)ccc1NC(=O)c1c(-c2ccccc2)noc1C` [Example 177, N-(6-(1H-Imidazol-1-yl)-2-(methylamino)pyridin-3-yl)-5-methyl-3-phenylisoxazole-4-carboxamide], the inhibition constant Ki was found to be 545 nM. Same read-out and setting: as for `COc1nc(-c2ncn(C)n2)ccc1NC(=O)c1c(-c2ccccc2)noc1C` [Example 51, N-[2-Methoxy-6-(1-methyl-1,2,4-triazol-3-yl)-3-pyridyl]-5-methyl-3-phenyl-isoxazole-4-carboxamide], the figure is 20.5 nM. Still for that read-out and setting: as for `CNc1ncc(-c2ccc(NC(=O)c3c(-c4ccccc4)noc3C)c(OC)n2)c(C)n1` [Example 192, N-[2-Methoxy-6-[4-methyl-2-(methylamino)pyrimidin-5-yl]-3-pyridyl]-5-methyl-3-phenyl-isoxazole-4-carboxamide], the figure is 1.2 nM; as for `COc1nc(-c2cccnn2)ccc1NC(=O)c1c(-c2ccccc2)noc1C` [Example 64, N-(2-Methoxy-6-pyridazin-3-yl-3-pyridyl)-5-methyl-3-phenyl-isoxazole-4-carboxamide], 21.9 nM. Same read-out and setting: as for `COc1nc(-c2cnc(CN)nc2)ccc1NC(=O)c1c(-c2ccccn2)nnn1C` [Example 202, N-(6-(2-(Aminomethyl)pyrimidin-5-yl)-2-methoxypyridin-3-yl)-1-methyl-4-(pyridin-2-yl)-1H-1,2,3-triazole-5-carboxamide hydrochloride], the figure is 77.8 nM; as for `COc1nc(-c2cnc(CN)nc2)ccc1NC(=O)c1c(-c2ccc(Cl)cn2)nnn1C` [Example 203, N-(6-(2-(Aminomethyl)pyrimidine-5-yl)-2-methoxypyridin-3-yl)-4-(5-chloropyridin-2-yl)-1-methyl-1H-1,2,3-triazole-5-carboxamide hydrochloride], 17 nM; as for `COc1nc(-c2cnc3c(c2)CC(=O)N3)ccc1NC(=O)c1c(-c2ccccc2)noc1C` [Example 114, N-(2-Methoxy-6-(2-oxo-2,3-dihydro-1H-pyrrolo[2,3-b]pyridin-5-yl)pyridin-3-yl)-5-methyl-3-phenylisoxazole-4-carboxamide], 6.3 nM. On to `COc1cc(-c2cnc(N)cn2)ccc1NC(=O)c1c(-c2ccccc2)noc1C` [Example 198, N-[4-(5-Aminopyrazin-2-yl)-2-methoxy-phenyl]-5-methyl-3-phenyl-isoxazole-4-carboxamide hydrochloride], for which the inhibitory constant (Ki) amounted to 4.3 nM.

Consider `COc1nc(-c2cnc3[nH]ccc3c2)ccc1NC(=O)c1c(-c2ccccc2)noc1C` [Example 118, N-(2-Methoxy-6-(1H-pyrrolo[2,3-b]pyridin-5-yl)pyridin-3-yl)-5-methyl-3-phenylisoxazole-4-carboxamide], for which the Ki was 137 nM.
